The source made the active and inactive calls. No cut-off for these calls is given here.
How the values were obtained:
[1] = biological target: T1, Acetylcholinesterase (Homo sapiens, UniProt P22303); assay: Displacement of propidium iodide from human AChE PAS assessed as reduction in fluorescence intensity at 5 uM incubated for 6 hrs by fluorescence based analysis relative to control; design: scale not given: the % may be the effect or the level left
[2] = biological target: Amyloid-beta precursor protein (Homo sapiens) (UniProt P05067); assay: Inhibition of amyloid beta (1 to 42) (unknown origin) self induced aggregation at 1.521 uM incubated for 72 hrs by ThT fluorescence based assay
[3] = biological target: T1, Acetylcholinesterase; assay: Inhibition of human recombinant AChE expressed in HEK293 cells using acetylthiocholine iodide as substrate preincubated with compound for 30 mins followed by substrate addition and measured after 30 mins by DTNB reagent based Ellman's method
[4] = test system: Drosophila melanogaster; assay: Anti-alzheimer activity in ey-GAL4 driven UAS-amyloid beta (1 to 42) induced Drosophila melanogaster Oregon R-positive assessed as fold increase in superoxide level at 10 uM by fluorescence based analysis; format: functional
[5] = test system: PC-12; assay: Neuroprotective activity against H2O2-induced oxidative stress in rat PC-12 cells assessed as cell viability at 1 to 20 uM preincubated with compound for 24 hrs and followed by H2O2 induction and measured after 24 hrs by MTT assay; format: functional, cell-based; conditions: dose 1-20 µM, time 48.0 hrs
[6] = test system: PC-12; assay: Induction of apoptosis in rat PC-12 cells assessed as viable cells at 2.5 uM incubated for 24 hrs by Annexin V/PI staining based flow cytometry analysis (reference value: 82.8%); format: functional; conditions: read-out: Activity
[7] = biological target: Cholinesterase (Equus caballus, UniProt P81908); assay: Inhibition of equine serum BChE using acetylthiocholine iodide as substrate preincubated with compound for 30 mins followed by substrate addition and measured after 30 mins by DTNB reagent based Ellman's method
[8] = test system: Mus musculus; assay: Neuroprotective activity against scopolamine-induced Swiss albino mouse model assessed as effect on PSD95 mRNA level at 0.3 to 0.5 mg/kg, po measured after 6 days by RT-PCR analysis; format: functional, organism-based; conditions: dose 0.3-0.5 mg/kg, time 6.0 day
[9] = Acute toxicity in Swiss albino mouse assessed as animal survival at 175 mg/kg, po administered for 14 days; format: organism-based; conditions: in vivo, 336 h, time 14 day
[10] = test system: PC-12; assay: Induction of apoptosis in rat PC-12 cells assessed as viable cells at 10 uM incubated for 24 hrs by Annexin V/PI staining based flow cytometry analysis (reference value: 82.8%); format: functional; conditions: read-out: Activity
[11] = test system: Mus musculus; assay: Neuroprotective activity against scopolamine-induced Swiss albino mouse model assessed as upregulation of MMP9 mRNA level at 0.3 to 0.5 mg/kg, po measured after 6 days by RT-PCR analysis; format: functional, organism-based; conditions: dose 0.3-0.5 mg/kg, time 6.0 day
[12] = test system: PC-12; assay: Induction of apoptosis in rat PC-12 cells assessed as viable cells at 20 uM incubated for 24 hrs by Annexin V/PI staining based flow cytometry analysis (reference value: 82.8%); format: functional; conditions: read-out: Activity
[13] = test system: Mus musculus; assay: Neuroprotective activity against scopolamine-induced Swiss albino mouse model assessed as upregulation of PKA mRNA level at 0.3 to 0.5 mg/kg, po measured after 6 days by RT-PCR analysis; format: functional, organism-based; conditions: dose 0.3-0.5 mg/kg, time 6.0 day
[14] = Acute toxicity in Swiss albino mouse assessed as body weight gain at 175 mg/kg, po administered for 14 days; format: organism-based; conditions: in vivo, 336 h, time 14 day
[15] = test system: Mus musculus; assay: Antialzheimer activity in scopolamine-induced Swiss albino mouse model assessed as improvement in memory retention by measuring time spent in platform quadrant at 0.3 to 0.5 mg/kg, po preincubated with compound for 30 mins followed by scopolamine induction and measured after 5 days by Morris water maze test; format: functional, organism-based; conditions: dose 0.3-0.5 mg/kg, time 7230.0 min
[16] = test system: PC-12; assay: Induction of apoptosis in rat PC-12 cells assessed as viable cells at 5 uM incubated for 24 hrs by Annexin V/PI staining based flow cytometry analysis (reference value: 82.8%); format: functional; conditions: read-out: Activity
[17] = Acute toxicity in Swiss albino mouse assessed as abnormal behavior at 175 mg/kg, po administered for 14 days; format: organism-based; conditions: in vivo, 336 h, time 14 day
[18] = test system: Mus musculus; assay: Antioxidant activity against scopolamine-induced Swiss albino mouse model assessed as increase in catalase level in brain at 0.3 to 0.5 mg/kg, po by absorbance based analysis; format: functional, organism-based; conditions: dose 0.3-0.5 mg/kg
[19] = test system: Mus musculus; assay: Antialzheimer activity in scopolamine-induced Swiss albino mouse model assessed as reduction in BChE level at 0.3 to 0.5 mg/kg, po preincubated with compound for 30 mins followed by scopolamine induction and measured after 30 mins; format: functional, organism-based; conditions: dose 0.3-0.5 mg/kg, time 1.0 hrs
[20] = biological target: T1, Acetylcholinesterase; assay: Displacement of propidium iodide from human AChE PAS assessed as reduction in fluorescence intensity at 0.1 uM incubated for 6 hrs by fluorescence based analysis relative to control; design: scale not given: the % may be the effect or the level left
[21] = Acute toxicity in Swiss albino mouse assessed as convulsion at 175 mg/kg, po administered for 14 days; format: organism-based; conditions: in vivo, 336 h, time 14 day
[22] = test system: Mus musculus; assay: Antialzheimer activity in scopolamine-induced Swiss albino mouse model assessed as decrease in escape latency at 0.3 to 0.5 mg/kg, po preincubated with compound for 30 mins followed by scopolamine induction and measured after 5 days by Morris water maze test; format: functional, organism-based; conditions: dose 0.3-0.5 mg/kg, time 7230.0 min
[23] = Acute toxicity in Swiss albino mouse assessed as tremor at 175 mg/kg, po administered for 14 days; format: organism-based; conditions: in vivo, 336 h, time 14 day
[24] = Antioxidant activity assessed as DPPH radical scavenging activity incubated for 30 mins; format: functional
[25] = test system: Mus musculus; assay: Neuroprotective activity against scopolamine-induced Swiss albino mouse model assessed as increase in CREB1 mRNA level at 0.3 to 0.5 mg/kg, po measured after 6 days by RT-PCR analysis; format: functional, organism-based; conditions: dose 0.3-0.5 mg/kg, time 6.0 day
[26] = test system: Mus musculus; assay: Neuroprotective activity against scopolamine-induced Swiss albino mouse model assessed as increase in C-FOS mRNA level at 0.3 to 0.5 mg/kg, po measured after 6 days by RT-PCR analysis; format: functional, organism-based; conditions: dose 0.3-0.5 mg/kg, time 6.0 day
[27] = test system: Drosophila melanogaster; assay: Inhibition of oxidative stress in y-GAL4 driven UAS-amyloid beta (1 to 42) induced Drosophila melanogaster Oregon R-positive assessed as fold increase in ROS level at 10 to 20 uM incubated for 30 mins by H2DCFDA staining based analysis; format: functional; conditions: dose 10-20 µM, 0.5 h
[28] = test system: Mus musculus; assay: Neuroprotective activity against scopolamine-induced Swiss albino mouse model assessed as effect on GAP43 mRNA level at 0.3 to 0.5 mg/kg, po measured after 6 days by RT-PCR analysis; format: functional, organism-based; conditions: dose 0.3-0.5 mg/kg, time 6.0 day
[29] = test system: Mus musculus; assay: Antialzheimer activity in scopolamine-induced Swiss albino mouse model assessed as reduction in AChE level at 0.3 to 0.5 mg/kg, po preincubated with compound for 30 mins followed by scopolamine induction and measured after 30 mins; format: functional, organism-based; conditions: dose 0.3-0.5 mg/kg, time 1.0 hrs
[30] = Permeability of the compound across blood brain barrier; format: ADME; conditions: read-out: BBB
[31] = biological target: T1, Acetylcholinesterase; assay: Displacement of propidium iodide from human AChE PAS assessed as reduction in fluorescence intensity at 1 uM incubated for 6 hrs by fluorescence based analysis relative to control; design: scale not given: the % may be the effect or the level left
[32] = test system: Mus musculus; assay: Neuroprotective activity against scopolamine-induced Swiss albino mouse model assessed as increase in NR4A2 mRNA level at 0.3 to 0.5 mg/kg, po measured after 6 days by RT-PCR analysis; format: functional, organism-based; conditions: dose 0.3-0.5 mg/kg, time 6.0 day
[33] = Metal chelating activity assessed as compound-Fe2+ complex formation by measuring increase in absorption intensity at 300 uM in presence of by UV-vis spectrometry
[34] = Metal chelating activity assessed as compound-Cu2+ complex formation by measuring increase in absorption intensity at 300 uM in presence of by UV-vis spectrometry
[35] = biological target: Amyloid-beta precursor protein (Homo sapiens) (UniProt P05067); assay: Inhibition of amyloid beta (1 to 42) (unknown origin) self induced aggregation at 1.521 uM incubated for 72 hrs by transmission electron microscopic analysis
[36] = test system: Mus musculus; assay: Antioxidant activity against scopolamine-induced Swiss albino mouse model assessed as increase in SOD level at 0.3 to 0.5 mg/kg, po by absorbance based analysis; format: functional, organism-based; conditions: dose 0.3-0.5 mg/kg
[37] = biological target: T1, Acetylcholinesterase; assay: Displacement of propidium iodide from human AChE PAS assessed as reduction in fluorescence intensity at 0.01 uM incubated for 6 hrs by fluorescence based analysis relative to control; design: scale not given: the % may be the effect or the level left
[38] = Toxicity in Drosophila melanogaster Oregon R-positive assessed as reduction in eclosed flies at 40 uM measured for 15 days relative to control; design: scale not given: the % may be the effect or the level left; conditions: 360 h, time 15 day
[39] = test system: PC-12; assay: Cytotoxicity against rat PC-12 cells assessed as cell viability upto 20 uM measured for 24 hrs by MTT assay; format: toxicity, cell-based; conditions: pc-12, 24 h
[40] = test system: Mus musculus; assay: Antioxidant activity against scopolamine-induced Swiss albino mouse model assessed as increase in MDA level at 0.3 to 0.5 mg/kg, po by absorbance based analysis; format: functional, organism-based; conditions: dose 0.3-0.5 mg/kg

T1 sequence (P22303 whole entry): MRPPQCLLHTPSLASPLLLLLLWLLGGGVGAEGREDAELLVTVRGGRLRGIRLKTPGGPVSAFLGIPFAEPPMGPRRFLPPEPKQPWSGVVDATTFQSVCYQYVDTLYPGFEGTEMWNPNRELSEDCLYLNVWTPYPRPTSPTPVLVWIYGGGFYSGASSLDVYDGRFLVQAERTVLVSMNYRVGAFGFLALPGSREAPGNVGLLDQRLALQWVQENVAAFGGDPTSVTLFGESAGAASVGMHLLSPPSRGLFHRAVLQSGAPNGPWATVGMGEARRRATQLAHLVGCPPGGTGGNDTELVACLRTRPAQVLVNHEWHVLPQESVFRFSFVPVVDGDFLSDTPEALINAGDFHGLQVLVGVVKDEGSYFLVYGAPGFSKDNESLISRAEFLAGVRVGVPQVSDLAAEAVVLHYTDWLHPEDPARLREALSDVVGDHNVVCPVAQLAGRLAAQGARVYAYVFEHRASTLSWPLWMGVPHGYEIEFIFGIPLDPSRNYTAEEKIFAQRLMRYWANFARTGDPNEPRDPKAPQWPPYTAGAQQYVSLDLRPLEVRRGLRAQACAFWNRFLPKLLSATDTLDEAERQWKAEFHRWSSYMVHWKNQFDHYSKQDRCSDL
Cholinesterase, sequence (P81908 whole entry): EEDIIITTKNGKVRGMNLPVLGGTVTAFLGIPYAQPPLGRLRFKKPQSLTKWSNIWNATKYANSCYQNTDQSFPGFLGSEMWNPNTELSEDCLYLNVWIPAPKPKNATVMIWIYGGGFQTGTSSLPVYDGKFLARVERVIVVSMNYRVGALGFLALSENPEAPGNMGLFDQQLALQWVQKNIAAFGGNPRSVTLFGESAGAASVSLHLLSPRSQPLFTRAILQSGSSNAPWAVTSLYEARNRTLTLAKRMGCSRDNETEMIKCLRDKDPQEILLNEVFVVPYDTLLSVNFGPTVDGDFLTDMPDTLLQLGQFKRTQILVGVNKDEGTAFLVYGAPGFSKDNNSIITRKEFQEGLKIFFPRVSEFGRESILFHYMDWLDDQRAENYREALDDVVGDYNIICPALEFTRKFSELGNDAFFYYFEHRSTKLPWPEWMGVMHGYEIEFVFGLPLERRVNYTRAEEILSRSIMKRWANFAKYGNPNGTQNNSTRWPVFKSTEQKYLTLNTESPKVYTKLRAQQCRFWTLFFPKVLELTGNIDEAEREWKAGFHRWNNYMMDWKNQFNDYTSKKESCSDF
Amyloid-beta precursor protein (Homo sapiens), sequence (P05067 whole entry): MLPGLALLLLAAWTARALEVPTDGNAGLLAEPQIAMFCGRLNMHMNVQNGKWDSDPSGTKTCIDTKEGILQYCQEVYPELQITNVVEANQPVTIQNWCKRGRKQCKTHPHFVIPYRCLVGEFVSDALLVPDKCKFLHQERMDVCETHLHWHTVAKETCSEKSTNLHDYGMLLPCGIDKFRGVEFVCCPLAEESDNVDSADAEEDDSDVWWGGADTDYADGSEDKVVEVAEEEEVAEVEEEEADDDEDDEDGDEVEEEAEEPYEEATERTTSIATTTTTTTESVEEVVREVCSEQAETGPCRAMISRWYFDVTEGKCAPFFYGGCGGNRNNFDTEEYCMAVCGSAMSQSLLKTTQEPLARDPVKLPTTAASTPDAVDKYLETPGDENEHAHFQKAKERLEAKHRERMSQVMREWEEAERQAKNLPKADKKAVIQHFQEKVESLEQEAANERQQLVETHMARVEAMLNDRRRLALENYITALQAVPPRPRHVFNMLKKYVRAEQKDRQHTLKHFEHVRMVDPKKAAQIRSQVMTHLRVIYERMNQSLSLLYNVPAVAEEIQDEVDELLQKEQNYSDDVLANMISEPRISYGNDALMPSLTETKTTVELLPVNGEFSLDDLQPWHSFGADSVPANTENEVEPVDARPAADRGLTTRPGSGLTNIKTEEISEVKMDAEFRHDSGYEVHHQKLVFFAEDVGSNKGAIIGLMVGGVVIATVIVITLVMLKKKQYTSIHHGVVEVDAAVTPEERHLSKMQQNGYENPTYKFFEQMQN

SMILES: C[C@@H](c1cccc(OC(=O)NCCc2c[nH]c3ccc(O)cc23)c1)N(C)C
- Activity [1]: 26.2%
- inhibition [2]: 100%
- IC50 [3]: 0.99 nM
- fold change (FC) [4]: 1.25
- Activity [5]: Active
- viability at 2.5 µM [6]: 65.9%
- IC50 [7]: 27.8 nM
- Activity [8]: Active
- Activity [9]: Non-toxic
- viability at 10 µM [10]: 63.3%
- Activity [11]: Active
- viability at 20 µM [12]: 80.7%
- Activity [13]: Active
- Activity [14]: Non-toxic
- Activity [15]: Active
- viability at 5 µM [16]: 71.3%
- Activity [17]: Non-toxic
- Activity [18]: Active
- Activity [19]: Active
- Activity [20]: 5.56%
- Activity [21]: Non-toxic
- Activity [22]: Active
- Activity [23]: Non-toxic
- IC50 [24]: 22.9 µM
- Activity [25]: Active
- Activity [26]: Active
- fold change (FC) [27]: 1.8
- Activity [28]: Active
- Activity [29]: Active
- Papp [30]: 11.5 ×10⁻⁶ cm/s
- Activity [31]: 18.3%
- Activity [32]: Active
- Activity [33]: inactive
- Activity [34]: inactive
- inhibition [35]: Active
- Activity [36]: Active
- Activity [37]: 3.54%
- Activity [38]: 9%
- Activity [39]: Non-toxic
- Activity [40]: Active

SMILES: C[C@@H](c1cccc(OC(=O)NCCc2c[nH]c3ccccc23)c1)N(C)C
- IC50 [3]: 22.2 nM
- IC50 [7]: 11.1 nM

SMILES: O=C1O[C@H]([C@@H](O)CO)C(O)=C1O [ASCORBIC ACID]
- IC50 [24]: 3.51 µM

Reference: ChEMBL document CHEMBL6074689 (Eur J Med Chem, 2025)
